Source: PubChem BioAssay AID1259411 (Chemical Carcinogenesis Research Information System (CCRIS), 2018)
Activity calls are given as the source filed them. The rule behind the calls is not given here.

System: rodent carcinogenicity bioassays, tumor incidence
Assay: CCRIS carcinogenicity studies
How it was run: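 NCI-built, expert-reviewed records of carcinogenicity and related test outcomes (mutagenicity, tumor promotion/inhibition) compiled from published and report sources, historical span 1985-2011, not updated.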

In the case of O, the carcinogen call (Species: MOUSE, Strain/Sex: B6C3F1/FEMALE, Route: ORAL, Dose: 0, 0.5, 2% IN DIET FOR 96 WK FOLLOWED BY CONTROL DIET FOR 8 WK (STUDY DURATION: 104 WK), Dose: 0, 0.5, 2% IN DIET FOR 96 WK FOLLOWED BY CONTROL DIET FOR 8 WK (STUDY DURATION: 104 WK)) is reported as “inactive; negative”, the carcinogen call (Species: MOUSE, Strain/Sex: B6C3F1/FEMALE, Route: ORAL, Dose: 0, 500, 1250, 2500 PPM IN DRINKING WATER (APPROXIMATELY 0; 40; 90; 200 MG/KG BW) FOR 104 WK (STUDY DURATION: 105 WK), Dose: 0, 500, 1250, 2500 PPM IN DRINKING WATER (APPROXIMATELY 0; 40; 90; 200 MG/KG BW) FOR 104 WK (STUDY DURATION: 105 WK)) is reported as “inactive; negative” and the carcinogen call (Species: MOUSE, Strain/Sex: B6C3F1/MALE, Route: ORAL, Dose: 0, 0.5, 2% IN DIET FOR 96 WK FOLLOWED BY CONTROL DIET FOR 8 WK (STUDY DURATION: 104 WK), Dose: 0, 0.5, 2% IN DIET FOR 96 WK FOLLOWED BY CONTROL DIET FOR 8 WK (STUDY DURATION: 104 WK)) is reported as “inactive; negative”. For the same compound, the carcinogen call (Species: MOUSE, Strain/Sex: B6C3F1/MALE, Route: ORAL, Dose: 0, 500, 1250, 2500 PPM IN DRINKING WATER (APPROXIMATELY 0; 30; 75; 160 MG/KG BW) FOR 103 WK (STUDY DURATION: 103 WK), Dose: 0, 500, 1250, 2500 PPM IN DRINKING WATER (APPROXIMATELY 0; 30; 75; 160 MG/KG BW) FOR 103 WK (STUDY DURATION: 103 WK)) was “inactive; negative”, the carcinogen call (Species: RAT, Strain/Sex: F344/FEMALE, Route: ORAL, Dose: 0, 500, 1250, 2500 PPM IN DRINKING WATER (APPROXIMATELY 0; 15; 45; 75 MG/KG BW) FOR 105 WK (STUDY DURATION: 106 WK), Dose: 0, 500, 1250, 2500 PPM IN DRINKING WATER (APPROXIMATELY 0; 15; 45; 75 MG/KG BW) FOR 105 WK (STUDY DURATION: 106 WK)) was “inactive; negative” and the carcinogen call (Species: RAT, Strain/Sex: F344/MALE, Route: ORAL, Dose: 0, 500, 1250, 2500 PPM IN DRINKING WATER (APPROXIMATELY 0; 15; 30; 60 MG/KG BW) FOR 104 WK (STUDY DURATION: 105 WK), Dose: 0, 500, 1250, 2500 PPM IN DRINKING WATER (APPROXIMATELY 0; 15; 30; 60 MG/KG BW) FOR 104 WK (STUDY DURATION: 105 WK)) was “inactive; negative”. The carcinogen call (Species: RAT, Strain/Sex: WISTAR/MALE, Route: INHALATION, Dose: 0, 10 MG/M3 OF RESPIRABLE DUST 7 HR/D 5 D/WK FOR 224 DAYS DURING A PERIOD OF 12 MO (STUDY DURATION: 29 MO), Tumor Site: Type of Lesion: LUNG: ADENOMA OR CARCINOMA) was “active; positive” and the carcinogen call (Species: RAT, Strain/Sex: WISTAR/MALE, Route: INTRAPERITONEAL, Dose: 0, 25 MG OF DUST SUSPENDED IN 2 ML PHOSPHATE BUFFERED SALINE (STUDY DURATION: >418 D), Tumor Site: Type of Lesion: LUNG: MESOTHELIOMA) was “active; positive”.

In the case of O=[N+]([O-])c1ccc(Cl)cc1, the carcinogen call (Species: MOUSE, Strain/Sex: CD-1/MALE,FEMALE, Route: ORAL, Tumor Site: Type of Lesion: BLOOD VESSELS) is reported as “active; positive”.

For C=C(C)[C@H]1CC=C(C)C(=O)C1, the carcinogen call (Species: MOUSE, Strain/Sex: B6C3F1/FEMALE, Route: GAVAGE, Dose: 0, 375, 750 MG/KG IN CORN OIL 5 D/WK FOR 103 WK (STUDY DURATION: 104 WK), Dose: 0, 375, 750 MG/KG IN CORN OIL 5 D/WK FOR 103 WK (STUDY DURATION: 104 WK)) was “inactive; negative” and the carcinogen call (Species: MOUSE, Strain/Sex: B6C3F1/MALE, Route: GAVAGE, Dose: 0, 375, 750 MG/KG IN CORN OIL 5 D/WK FOR 103 WK (STUDY DURATION: 104 WK), Dose: 0, 375, 750 MG/KG IN CORN OIL 5 D/WK FOR 103 WK (STUDY DURATION: 104 WK), Tumor Site: Type of Lesion: KIDNEY: TUBULAR CELL ADENOCARCINOMA) was “inactive; negative”.

COCCl was tested, and the carcinogen call (Species: MOUSE, Strain/Sex: ICR/FEMALE, Route: SUBCUTANEOUS, Dose: 300 UG IN 0.05 ML NUJOL 1/WK FOR 685 D, Tumor Site: Type of Lesion: INJECTION SITE: SARCOMA) was “active; positive”.

With Nc1nc(-c2ccc([N+](=O)[O-])o2)cs1 the carcinogen call (Species: RAT, Strain/Sex: F344/FEMALE, Route: ORAL, Dose: 0.166% IN DIET FOR 52 WK, Tumor Site: Type of Lesion: FORESTOMACH: PAPILLOMA, CARCINOMA, URINARY BLADDER: PAPILLOMA, CARCINOMA) was “active; positive” and the carcinogen call (Species: RAT, Strain/Sex: F344/MALE,FEMALE, Route: SUBCUTANEOUS, Dose: 10 MG/KG IN DMSO:WATER 1/WK FOR 8 WK, THEN 1.4 MG/RAT 1/WK FOR 46 WK, Tumor Site: Type of Lesion: INJECTION SITE: SARCOMA) was “active; positive”.

For O=C(O)COc1ccc(Cl)cc1Cl (tested in a mixture with another compound), the carcinogen call (Species: MOUSE, Strain/Sex: B6C3F1/FEMALE, Route: DERMAL, Dose: 0, 100, 200 MG/KG BW IN ETHANOL 5/WK FOR 104 WK (STUDY DURATION: 104 WK), Dose: 0, 100, 200 MG/KG BW IN ETHANOL 5/WK FOR 104 WK (STUDY DURATION: 104 WK), Tumor Site: Type of Lesion: LIVER: HEPATOCELLULAR ADENOMA, HEPATOCELLULAR CARCINOMA, HEPATOCELLULAR ADENOMA OR CARCINOMA OR HEPATOBLASTOMA) was “active; positive”, the carcinogen call (Species: MOUSE, Strain/Sex: B6C3F1/MALE, Route: DERMAL, Dose: 0, 100, 200 MG/KG BW IN ETHANOL 5/WK FOR 104 WK (STUDY DURATION: 104 WK), Dose: 0, 100, 200 MG/KG BW IN ETHANOL 5/WK FOR 104 WK (STUDY DURATION: 104 WK), Tumor Site: Type of Lesion: KIDNEY: RENAL TUBULE ADENOMA, RENAL TUBULE ADENOMA OR CARCINOMA, LIVER: HEPATOCELLULAR ADENOMA, HEPATOCELLULAR CARCINOMA) was “active; positive” and the carcinogen call (Species: RAT, Strain/Sex: F344/FEMALE, Route: DERMAL, Dose: 0, 50, 100 MG/KG BW IN ETHANOL 5/WK FOR 104 WK (STUDY DURATION: 104 WK), Dose: 0, 50, 100 MG/KG BW IN ETHANOL 5/WK FOR 104 WK (STUDY DURATION: 104 WK), Tumor Site: Type of Lesion: KIDNEY: RENAL TUBULE ADENOMA OR CARCINOMA) was “equivocal”. For the same compound, the carcinogen call (Species: RAT, Strain/Sex: F344/MALE, Route: DERMAL, Dose: 0, 50, 100 MG/KG BW IN ETHANOL 5/WK FOR 104 WK (STUDY DURATION: 104 WK), Dose: 0, 50, 100 MG/KG BW IN ETHANOL 5/WK FOR 104 WK (STUDY DURATION: 104 WK)) was “inactive; negative”.

Cl was tested, and the carcinogen call (Species: RAT, Strain/Sex: F344/MALE, Route: ORAL, Dose: 0, 0.25, 1, 4% IN DIET FOR 2 YR (STUDY DURATION: 2 YR), Dose: 0, 0.25, 1, 4% IN DIET FOR 2 YR (STUDY DURATION: 2 YR)) was “inactive; negative”.
